We go through 5 compounds from patent US9844226B2 (AJINOMOTO CO., INC., priority 2009, dated 2017).

What all share (type): in vivo, human
Experiment [1] has as its system panelists. Kind of experiment: Quantitative sensory evaluation test of kokumi-imparting activity. To be noted: for Strength of Kokumi Impartment, Initial Taste / Strength of Kokumi Impartment, Middle/After Taste: scale -5~0~5, n=4; for Kokumi-imparting strength compared with γ-Glu-Val (in words): in vivo. As for the experimental part: This quantitative sensory evaluation test was carried out as follows: The strength of the kokumi-imparting activity was measured for the cases where the test compound was mixed at concentrations of 0.001 to 0.5 g/dL with distilled water containing sodium glutamate (0.05 g/dL), inosine monophosphate (0.05 g/dL), and sodium chloride (0.5 g/dL). After the test compound was dissolved, samples more acidic than a control with no added test compound were adjusted, before further use, with NaOH to have a pH in a range of ±0.2 from the pH of the control with no added test compound. The sensory evaluation scores were as follows: control: 0 points; strong: 3 points; very strong: 5 points. The sensory evaluation was carried out using n (the number of panelists)=4. Moreover, to clarify the scale, the initial taste and the middle/after taste of γ-[…] at 0.001 g/dL were both set as 3.0 points. The term “middle/after taste” refers to the taste perceived during the period which includes the middle taste and the after taste. For the scoring, a linear scale method was employed. In this method, the score was marked as a position on a straight line showing positions for scores ranging from -5 0 5.

Experiment [2] relates to panelists. Kind of experiment: Strength of kokumi-imparting activity by Point of Subjective Equality (PSE), limit-determining technique. As for the experimental part:
The intensity of the kokumi-imparting activity of γ-Glu-Abu was determined by Point of Subjective Equality (PSE) according to the limit-determining technique (“Statistical Sensory Examination techniques”, written by SATO Shin, published by Japan Federation of Science and Technology). The sensory evaluation was carried out as follows: Distilled water containing sodium glutamate (0.05 g/dL), inosine monophosphate (0.05 g/dL) and sodium chloride (0.5 g/dL) was used as the solution for the sensory evaluation. […] To determine the concentration of γ-Glu-Val at which the strength of taste is the same as that of a solution obtained by causing the solution for the sensory evaluation to contain 0.005 g/dL of γ-[…] solutions were prepared with a concentration that varied on a 50% logarithmic scale by using a solution obtained by causing the solution for the sensory evaluation, to contain 0.01 g/dL of γ-Glu-Val as a standard. The concentrations of γ-Glu-Val was set to 7 values ranging from 0.0030 to 0.0337 g/dL. After the test substance was dissolved, samples more acidic than the control with no added test substance were adjusted, before further use, with NaOH to have a pH in a range of ±0.2 as compared to the pH of the control with no added test substance. The solutions were presented to eighteen panelists in ascending order of the γ-Glu-Val concentration. The evaluation was carried out until each panelist perceived that the strength was higher than that of the 0.005 g/dL γ-Glu-Abu solution. After a certain interval, the solutions were next presented to the eighteen panelists in descending order of the γ-Glu-Val concentration. The evaluation was carried out until each panelist perceived that the strength was lower than that of the 0.005 g/dL γ-Glu-Abu solution. In this sensory evaluation, the panelists were experienced in the development of food products. When the lower and upper threshold values were the same, there was no γ-Glu-Val concentration at which the difference between the perception that the strength was lower, and the perception that the strength was higher, was uncertain. […] Each confidence threshold (average) is an average of the lower thresholds and the upper thresholds. The point of subjective equality (PSE) of γ-Glu-Val to 50 ppm (0.0050 g/dL) of γ-Glu-Abu is expressed as follows: (the sum of the confidence threshold of the lower thresholds and that of the upper threshold value)/2.

In experiment [3] the test system is panelists. Nature of the experiment: Quantitative sensory evaluation test of salty taste enhancement. On the procedure:
After the test compound was dissolved, samples more acidic than a control containing no added test compound were adjusted, before further use, with NaOH to have a pH in a range of ±0.2 from the pH of the control to which no test compound was added.
The sensory evaluation scores were as follows, the control to which no test compound was added, i.e. a 0.5 g/dL sodium chloride solution: 0 points; a 0.75 g/dL sodium chloride solution: 5 points. The sensory evaluation was conducted on a scale ranging from −5 to 0 to 5, with n=5. The “initial taste” refers to the taste perceived by each panelist from the start of eating the sample to 2 seconds thereafter, while the term “middle/after taste” refers to that perceived by each panelist from 2 seconds on and after eating the same, i.e. perceived during the period including both the middle taste and the after taste. For the scoring, a linear scale method was used. In this method, the score was marked as a position on a straight line showing positions for scores ranging from −5˜0˜5. The panelists were persons who were engaged in the development of seasonings for foods for one year or longer in total, and who were capable of determining that the difference in the potency between γ-Glu-Cys-Gly and γ-Glu-Val-Gly each added to a umami taste and salty taste solution was around 10 times, while confirming the ability of these persons at regular intervals.

[4] abbreviates: 0.2 g/dL in water with MSG 0.05, IMP 0.05, NaCl 0.5 g/dL.
[5] abbreviates: 0.01 g/dL in water with MSG 0.05, IMP 0.05, NaCl 0.5 g/dL.
The mark [6] stands for this setting: γ-Glu-Val vs 50 ppm γ-Glu-Abu, individual panelists (Nos. 1-18), ascending order of presentation.
The mark [7] stands for this setting: γ-Glu-Val vs 50 ppm γ-Glu-Abu, individual panelists (Nos. 19-36), descending order of presentation.
The mark [8] stands for this setting: 0.002 g/dL in 0.5 g/dL NaCl, 0.5 g/dL NaCl = 0, 0.75 g/dL NaCl = 5, n=5.

Where “and” joins values, the source holds several entries; their conditions need not be identical. Identical values can stand only once. Entries after “also recorded” stand apart in the source; their conditions may differ. Starred links: 1 amine or outer side, 2 acyl side, 3 side chain; linkers in the order of their positions; H or OH if unused. Non-standard residues stand in square brackets, D forms with d. No end group written: not given here. γGlu = O=C(O)[C@H](CCC(=O)[*:2])N[*:1]

As for `C[C@H](NC(=O)CC[C@H](N)C(=O)O)C(=O)O` [γ-Glu-Ala, γ-L-Glu-L-Ala], in the experiment on panelists [1] (setting [4]), the “Strength of Kokumi Impartment, Initial Taste” value came to 4.5 points and the “Strength of Kokumi Impartment, Middle/After Taste” value is 4.3 points. In addition, the “Kokumi-imparting strength compared with γ-Glu-Val (in words)” value in the experiment on panelists [1] is given as “lower strength than γ-Glu-Val”.
In the case of `N[C@@H](CCC(=O)N[C@@H](CS)C(=O)O)C(=O)O` [γ-Glu-Cys, γ-L-Glu-L-Cys], in the experiment on panelists [1] (setting [5]), the “Strength of Kokumi Impartment, Initial Taste” value turned out to be 3.1 points and the “Strength of Kokumi Impartment, Middle/After Taste” value came to 3.1 points. The “Kokumi-imparting strength compared with γ-Glu-Val (in words)” value with panelists [1] is “strong effect approximately the same as that of γ-Glu-Val”.
For `N[C@@H](CCC(=O)N[C@@H](CO)C(=O)O)C(=O)O` [γ-Glu-Ser, γ-L-Glu-L-Ser], in the experiment with panelists [1] (setting [4]), the “Strength of Kokumi Impartment, Initial Taste” value turned out to be 3.6 points and the “Strength of Kokumi Impartment, Middle/After Taste” value is reported as 3.0 points. Besides, the “Kokumi-imparting strength compared with γ-Glu-Val (in words)” value in the experiment on panelists [1] is “lower strength than γ-Glu-Val”.
Regarding `CC(C)[C@H](NC(=O)CC[C@H](N)C(=O)O)C(=O)O` [γ-Glu-Val, γ-L-Glu-L-Val], the “PSE (point of subjective equality) of γ-Glu-Val to 50 ppm γ-Glu-Abu” value in the experiment with panelists [2] ((lower + upper confidence threshold)/2) was found to be 121.9 ppm. The “γ-Glu-Val concentration (PSE) with the same strength as 0.0050 g/dL γ-Glu-Abu, estimated from number of panelists (Table 4)” value in the experiment on panelists [2] (estimated from Table 4) is reported as 0.0100 g/dL. Further, the “PSE calculated from upper and lower threshold concentrations of γ-Glu-Val” value with panelists [2] (vs 0.0050 g/dL γ-Glu-Abu) was 0.0122 g/dL. Further, the “No. of Panelists whose evaluation was such that the difference between γ-Glu-Val and γ-Glu-Abu (0.0050 g/dL) was uncertain” value in the experiment with panelists [2] (γ-Glu-Val 0.0030 g/dL) is listed as 0 No. of panelists; in the experiment with panelists [2] (γ-Glu-Val 0.0044 g/dL), 0 No. of panelists; in the experiment on panelists [2] (γ-Glu-Val 0.0067 g/dL), 13 No. of panelists; in the experiment with panelists [2] (γ-Glu-Val 0.0100 g/dL), 13 No. of panelists; with panelists [2] (γ-Glu-Val 0.0150 g/dL), 6 No. of panelists; with panelists [2] (γ-Glu-Val 0.0225 g/dL) it was 7 No. of panelists. In addition, in the experiment on panelists [2] (γ-Glu-Val 0.0337 g/dL), the “No. of Panelists whose evaluation was such that the difference between γ-Glu-Val and γ-Glu-Abu (0.0050 g/dL) was uncertain” value is 0 No. of panelists. In addition, the “No. of Panelists whose evaluation was such that γ-Glu-Val was weaker than γ-Glu-Abu (0.0050 g/dL)” value in the experiment with panelists [2] (γ-Glu-Val 0.0030 g/dL) is 36 No. of panelists; with panelists [2] (γ-Glu-Val 0.0044 g/dL) it was 35 No. of panelists; in the experiment with panelists [2] (γ-Glu-Val 0.0067 g/dL), 20 No. of panelists; with panelists [2] (γ-Glu-Val 0.0100 g/dL) it was 12 No. of panelists; in the experiment on panelists [2] (γ-Glu-Val 0.0150 g/dL) it was 5 No. of panelists; with panelists [2] (γ-Glu-Val 0.0225 g/dL), 1 No. of panelists. Also, the “No. of Panelists whose evaluation was such that γ-Glu-Val was weaker than γ-Glu-Abu (0.0050 g/dL)” value with panelists [2] (γ-Glu-Val 0.0337 g/dL) is 0 No. of panelists. The “No. of Panelists whose evaluation was such that γ-Glu-Val was stronger than γ-Glu-Abu (0.0050 g/dL)” value with panelists [2] (γ-Glu-Val 0.0030 g/dL, 18 panelists, ascending and descending) is on record as 0 No. of panelists; with panelists [2] (γ-Glu-Val 0.0044 g/dL) it was 1 No. of panelists; in the experiment on panelists [2] (γ-Glu-Val 0.0067 g/dL), 3 No. of panelists; in the experiment on panelists [2] (γ-Glu-Val 0.0100 g/dL) it was 11 No. of panelists; in the experiment on panelists [2] (γ-Glu-Val 0.0150 g/dL) it was 25 No. of panelists; in the experiment with panelists [2] (γ-Glu-Val 0.0225 g/dL), 28 No. of panelists. For the same compound, in the experiment on panelists [2] (γ-Glu-Val 0.0337 g/dL), the “No. of Panelists whose evaluation was such that γ-Glu-Val was stronger than γ-Glu-Abu (0.0050 g/dL)” value is listed as 36 No. of panelists. Also, the “Confidence Region (average), Lower Threshold” value with panelists [2] (γ-Glu-Val vs 50 ppm γ-Glu-Abu, average of the 36 lower thresholds) is given as 94.5 ppm. In addition, the “Confidence Region (average), Upper Threshold” value with panelists [2] (γ-Glu-Val vs 50 ppm γ-Glu-Abu, average of the 36 upper thresholds) turned out to be 149.3 ppm. For the same compound, the “Lower Threshold at which each panelist determined that the concentrations were the same” value in the experiment with panelists [2] (setting [6]) is 55.5 ppm and 125.0 ppm and 37.0 ppm and 83.5 ppm and 187.5 ppm; in the experiment with panelists [2] (setting [7]) it was 125.0 ppm (3×) and 83.5 ppm (5×) and 187.5 ppm (3×) and 55.5 ppm (5×) and 56.0 ppm and 281.0 ppm. The “Upper Threshold at which each panelist determined that the concentrations were the same” value was 55.5 ppm and 125.0 ppm and 187.5 ppm and 37.0 ppm and 281.0 ppm and 83.5 ppm with panelists [2] (setting [6]); 125.0 ppm (7×) and 281.0 ppm (5×) and 187.5 ppm (2×) and 83.5 ppm (4×) in the experiment on panelists [2] (setting [7]). For the same compound, in the experiment on panelists [1] (0.01 g/dL), the “Sensory Evaluation Profile (kokumi)” value is “The after taste was extremely weak”. For the same compound, the “Strength of Kokumi Impartment, Initial Taste” value in the experiment with panelists [1] (setting [5]) was 3.1 points. Further, the “Strength of Kokumi Impartment, Middle/After Taste” value with panelists [1] (setting [5]) is listed as 2.4 points.
Take [γGlu]-Val-Gly: in the experiment with panelists [3] (setting [8]), the “Strength of Salty Taste Impartment, Initial Taste” value turned out to be 0.8 points and the “Strength of Salty Taste Impartment, Middle/After Taste” value came out at 1.8 points. Further, the “Salty taste enhancement ability (in words)” value in the experiment with panelists [3] (comparison of γ-Glu-Val-Gly and γ-Glu-Abu) is listed as “higher taste-imparting strength than γ-Glu-Abu; also recorded: remarkably disturbs the balance of the salty taste”.
